The assay has as its target Isoform Bcl-X(L) of Bcl-2-like protein 1 (Bcl-xL) (Homo sapiens, UniProt Q07817). Briefly: Bim-Bcl-XL interaction inhibitors, potency, dose response, biochemical, multiplexed, bead flow cytometry, human Bcl-XL (AID 1322). Conditions: pH 7.4, 4 °C.
Setting [1] is: inactive by the depositor's call.

We go through 29 compounds from BindingDB's records for doi:10.7270/Q2K935WV (Nmmlsc, 2008).

Sequence of Isoform Bcl-X(L) of Bcl-2-like protein 1 (Bcl-xL) (Q07817 whole entry G70A, canonical isoform): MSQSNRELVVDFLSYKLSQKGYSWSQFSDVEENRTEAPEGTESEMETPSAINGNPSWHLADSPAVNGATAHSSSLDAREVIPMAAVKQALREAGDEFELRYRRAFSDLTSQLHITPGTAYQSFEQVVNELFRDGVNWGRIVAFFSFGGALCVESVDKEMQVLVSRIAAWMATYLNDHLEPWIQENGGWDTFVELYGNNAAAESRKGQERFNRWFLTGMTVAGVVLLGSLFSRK

For `OCCN1CCN(CCCc2c3c(cc4c2CCC4)CCC3)CC1` [MLS000698424], a half-maximal effect (EC50) was put at 16.1 µM.

Under setting [1], `CCOC(=O)c1c(O)nc2ccc(Cl)c3c2c1-c1ccccc1C3=O` [MLS000704595] registered an EC50 of 5.86 µM.

The compound `Cc1ccc(OCc2cn3cccnc3n2)cc1` [MLS000723172] displayed an EC50 under setting [1] of 46.1 µM.

As to `COc1cccc2c(SCC(=O)NN=Cc3ccc(O)cc3O)cc(C)nc12` [N'-[(E)-(2-hydroxy-4-oxo-1-cyclohexa-2,5-dienylidene)methyl]-2-[(8-methoxy-2-methyl-4-quinolinyl)thio]acetohydrazide], the response was half-maximal at 83.6 µM (EC50).

Compound `c1ccc(Nc2cccc(Nc3ccccc3)n2)cc1` [N,N'-diphenyl-2,6-pyridinediamine] gave a concentration for a half-maximal effect (EC50) under setting [1] of 6.98 µM.

`COc1cc(C=NNC(=O)CN(Cc2ccco2)S(=O)(=O)c2ccccc2)ccc1O` [N-(2-furanylmethyl)-N-[2-[[(E)-(3-methoxy-4-oxo-1-cyclohexa-2,5-dienylidene)methyl]hydrazo]-2-oxoethyl]benzenesulfonamide] displayed an EC50 of 18.4 µM.

The compound `CC(=O)c1ccc(NC(=O)c2ccc3nc(-c4ccco4)c(-c4ccco4)nc3c2)cc1` [N-(4-acetylphenyl)-2,3-di-2-furyl-6-quinoxalinecarboxamide] gave a half-maximal effective concentration (EC50) under setting [1] of 23.1 µM.

`COc1cccc(CN=Nc2nn3cnnc3c3ccccc23)c1` [N-[1-(3-Methoxy-phenyl)-meth-(E)-ylidene]-N'-[1,2,4]triazolo[3,4-a]phthalazin-6-yl-hydrazine] came in with a half-maximal effective concentration (EC50) of 2.04 µM.

The compound `COc1ccc(CCNC(=O)c2ccc3nc(-c4ccco4)c(-c4ccco4)nc3c2)cc1OC` [N-[2-(3,4-dimethoxyphenyl)ethyl]-2,3-di-2-furylquinoxaline-6-carboxamide] gave an EC50 under setting [1] of 20.7 µM.

Under setting [1], `Cc1cccc(C(=O)/N=c2\c(C#N)cc3c(=O)n4cccc(C)c4nc3n2Cc2ccco2)c1` [N-[3-cyano-1-(furan-2-ylmethyl)-10-methyl-5-oxodipyrido[3,4-c:1',2'-f]pyrimidin-2-ylidene]-3-methylbenzamide] showed a concentration for a half-maximal effect (EC50) of 50.4 µM.

On to `COCCCNc1nc(S)nc2cc(OC)c(OC)cc12` [SMR000026607], for which the concentration for a half-maximal effect (EC50) under setting [1] amounted to 3.65 µM.

`O=C1c2ccccc2-c2onc3ccc(NCCCn4ccnc4)c1c23` [SMR000044769] returned an EC50 of 1.14 µM.

Compound `CSc1nnc2c3cc(C)ccc3n(Cc3ccccc3)c2n1` [SMR000046397] came in with an EC50 under setting [1] of 20.6 µM.

Consider `c1ccc(-c2nc(N3CCCCCC3)c3ccccc3n2)nc1` [SMR000046752], for which, under setting [1], the midpoint of the response, the EC50, lay at 21.9 µM.

With `C#CCn1cc(C=C2C(=O)c3ccccc3C2=O)c2ccccc21` [SMR000196125], under setting [1], the EC50 was 11.7 µM.

Consider `CN(N=Cc1cccnc1)C1=NS(=O)(=O)c2ccccc21` [SMR000207578], for which the concentration for a half-maximal effect (EC50) under setting [1] was found to be 19.2 µM.

`Clc1nc2ccccc2cc1CN=Nc1nc2ccccc2[nH]1` [SMR000221568] came in with a half-maximal effective concentration (EC50) of 49.7 µM.

Compound `COc1ccc(OC)c(-n2c(=O)c3ccccc3c3ccccc3c2=O)c1` [SMR000236434] showed a concentration giving a half-maximal response (EC50) under setting [1] of 17.6 µM.

The compound `Nc1c(C(=O)NCC2CCCO2)sc2nc3c(c(-c4ccco4)c12)CC/C3=C\c1ccco1` (centres undefined) [SMR000259502] had an EC50 of 6.11 µM.

In turn, `Nc1c(C(=O)NC2CC2)sc2nc3c(c(-c4ccco4)c12)CC/C3=C/c1ccco1` [SMR000259554] returned a concentration for a half-maximal effect (EC50) of 9.01 µM.

Regarding `O=C1c2ccccc2-c2onc3ccc(N4CCCC4)c1c23` [SMR000279741], it took 13.1 µM to reach a half-maximal effect under setting [1] (EC50).

Take `O=C(CSc1ccc2nnc(-c3ccncc3)n2n1)Nc1nccs1` [SMR000320332]: under setting [1], the EC50 came out at 22.2 µM.

As to `Cc1nnc2ccc(-c3cccc(NC(=O)c4ccco4)c3)nn12` [SMR000324305], the response was half-maximal at 5.17 µM (EC50).

`O=C(Nc1cccc(Cl)c1)Nc1ccnc(-c2cccnc2)n1` [SMR000337179] had a concentration for a half-maximal effect (EC50) under setting [1] of 1.14 µM.

Consider `O=c1c2c(-c3ccccc3)csc2nc2c3ccccc3c(NCCN3CCOCC3)nn12` [SMR000352519], for which, under setting [1], a half-maximal response (EC50) required 0.41 µM.

In the case of `CCN1/C(=C/C(C)=C/c2sc3ccccc3[n+]2CC)Sc2ccccc21` [SMR000354813], a half-maximal response (EC50) required 26.4 µM.

Regarding `Cc1ccnc(Nc2nc(-c3c(C)nc4sccn34)cs2)c1` [[4-(6-Methyl-imidazo[2,1-b]thiazol-5-yl)-thiazol-2-yl]-(4-methyl-pyridin-2-yl)-amine], the EC50 under setting [1] is 24 µM.

The compound `CCOC(=O)c1nc(Nc2ccc(C(=O)OC)cc2)c2ccccc2n1` [ethyl 4-(4-methoxycarbonylanilino)quinazoline-2-carboxylate] registered an EC50 under setting [1] of 13.5 µM.

Consider `CN(N=Cc1ccncc1)C1=NS(=O)(=O)c2ccccc21` [isonicotinaldehyde (1,1-dioxido-1,2-benzisothiazol-3-yl)(methyl)hydrazone], for which, under setting [1], the half-maximal effective concentration (EC50) was found to be 2.64 µM.
